Columns and labels:
[1] = Mouse PK, intravenous; assay type: in vivo; details: female FVB mice, i.v. 0.5 mg/kg, mixture
Protocol: Pharmacokinetics (PK) Assay. To measure mouse pharmacokinetics (PK), thienopyridine derivatives were dissolved in 5% dextrose and administered to female FVB mice at different dosing conditions; blood samples were collected at different time points and compound concentrations in the serum were measured by LC/MS/MS.

[2] = Mouse PK, oral 1 mg/kg; assay type: in vivo; details: female, FVB, serum, mice, oral (gavage) 1 mg/kg
[3] = tested on: MDA-MB-468 triple-negative breast cancer (TNBC) cells; assay: MDA-MB-468 long-term treatment in vitro; assay type: cell-based, Human
[4] = MTD study, oral gavage b.i.d. 14 days, CD-1 mice; assay type: in vivo, mouse; details: for detrimental effects: 14 days
Protocol: The highest dose (120 mg/kg b.i.d.) caused about 10% body weight loss in female mice after 7-10 days of treatment but no further deterioration was observed through the rest of the treatment period (FIG. 12A).

[5] = tested on: NFκB activation in CDK8/19-deficient cells; assay: NFκB reporter assay in CDK8/19 double-knockout 293 reporter cells; details: CDK8/19 double-knockout reporter cells

CN(C)C(=O)c1ccc(N2CCCN(c3ccnc4sc(C(N)=O)c(N)c34)CC2)cc1 [15u, 3-amino-4-(4-(4-(dimethylcarbamoyl)phenyl)-1,4-diazepan-1-yl)thieno[2,3-b]pyridine-2-carboxamide]
Elimination rate [1]: 4.03 h⁻¹ | AUC ([1]; mouse, serum, iv): 92.1 ng·h/mL | C0 ([1]; mouse, serum, iv): 328 ng/mL | Vd ([1]; mouse, serum, iv): 1.52 L/kg | half-life ([1]; mouse, serum, iv): 10.2 min | AUC [2]: 79.3 ng·h/mL | half-life [2]: 78 min | bioavailability ([2]; read-out: Bioavailability (F %)): 43% | response upon long-term treatment in vitro [3]: responsive | body weight loss ([4]; female CD-1 mice, 120 mg/kg b.i.d., after 7-10 days of treatment): about 10% | detrimental effects ([4]; female CD-1 mice, doses up to 60 mg/kg b.i.d.): No detrimental effects | detrimental effects ([4]; male CD-1 mice, 60 and 120 mg/kg b.i.d.): No detrimental effects | effect on NFκB activation in CDK8/19-deficient cells [5]: no effect

From patent US11572369B2, “Bicyclic pyridine compositions and methods of using the same for cancer therapy” (UNIVERSITY OF SOUTH CAROLINA, priority 2019, dated 2023)
